44 compounds from patent publication US5200407A, “Azole derivatives and anti-ulcerative composition containing same” (Meiji Seika Kaburhiki Kaisha, priority 1989, dated 1993) can be followed below.

The test system of data set [1] is ulceration. Put plainly: Water-immersion, restraint stress ulcerogenic testing. In kind it is in vivo, Wister male rats. The conditions noted are these: one hour prior to stressing, water immersion restraint six hours, rats; for inhibition in vivo at 30 mg/kg: Rattus norvegicus, Table 1, suspended in 0.5% CMC. How it is done: 1. Water-immersion, restraint stress ulcerogenic testing
Wister male rats (11-week age) fasted for 18 hours were placed in a restraint cage, which was in turn immersed to a depth of the pectoral region in water at 20° to 22° C. to leave the rats under stress for six hours. Then, the rats were drawn up from the water and put down by vertebral dislocation. Afterwards, the stomach was removed, infused with 50 ml of a 5% aqueous solution of formalin and was wholly immersed in the same solution for 30 minutes for fixation. The fixed sample was dissected along the curvatura ventriculi major, and the ulcerated regions were measured along their major length (in mm) by means of slide calipers. The total sum of the measurements per rat is a value of ulceration. The compounds under test, suspended in 0.5% carboxymethylcellulose (CMC), were administered to the rats at a single dose of 5 ml/kg body weight (corresponding to 30 mg/kg body weight of the compound) one hour prior to the stressing. To a control group, only 0.5% CMC was administrated at a dose of 5 ml/kg weight. The rate of depression of ulceration was calculated according to the following equation: [formula]

Data set [2] has as its system ulceration. Put plainly: Ethanol-induced ulceration. In kind it is in vivo, Donryu masculine rats. The conditions noted are these: 30 mg/kg oral, in 0.5% CMC, one hour prior to 100% ethanol, rats; for % Ulceration Inhibition: Table 2. The protocol: 2. Ethanol-induced ulceration
Five (5) ml/kg of 100% ethanol was orally administrated to Donryu masculine rats fasted for 48 hours and dehydrated for 24 hours. One hour later, the rats were put down in similar manners as mentioned above test to remove and treat the stomach. The compounds under test, suspended in 0.5% CMC, were orally administered to the rats at a dose of 5 ml/kg body weight (corresponding to 30 mg/kg body weight of that compound) one hour prior to the administration of ethanol.

Data set [3] is described as follows: Toxicity (LD50). The settings on record: mouse, in vivo; mice, oral. The text has this: The compounds of the present invention are of low toxicity, as appreciated from Example Compound Nos. 79, 104 and 133 having up to 1 g/kg of LD50 value (mice, by an oral).

As to “2-[(2-ureidoethyl)sulfinyl]thiazolo[5,4-b]pyridine [Example 146]”, the “% Ulceration Inhibition” value in data set [1] (Table 1, 30 mg/kg, suspended in 0.5% CMC) came out at 19%.

Turning to `CC1(C)CCCC(C)(C)N1CCSc1nc2ncccc2o1` [Example 47, 2-[(2-(2,2,6,6-tetramethylpiperidin-1-yl)ethyl)thio]oxazolo[4,5-b]pyridine], the inhibition in vivo at 30 mg/kg in data set [1] amounted to 99%.

On to `CC1(C)CCCC(C)(C)N1CCSc1nc2cccnc2o1` [Example 48, 2-[(2-(2,2,6,6-tetramethylpiperidin-1-yl)ethyl)thio]oxazolo[5,4-b]pyridine], for which, in data set [1], the inhibition in vivo at 30 mg/kg is 99%.

On to `CC(C)N(CCSc1nc2ncccc2o1)C(C)C` [Example 51, 2-[(2-di-isopropylaminoethyl)thio]oxazolo[4,5-b]pyridine], for which at 30 mg/kg the inhibition in vivo in data set [1] was 88%.

As for `c1cnc2sc(SCCN3CCOCC3)nc2c1` [Example 65, 2-[(2-morpholinoethyl)thio]thiazolo[5,4-b]pyridine], in data set [1], 30 mg/kg produced 58% inhibition in vivo.

Take `CN1CCCC1CCSc1nc2cccnc2s1` (stereo not shown) [Example 70, 2-[(2-(1-methylpyrrolidin-2-yl)ethyl)thio]thiazolo[5,4-b]pyridine]: the inhibition in vivo at 30 mg/kg in data set [1] was found to be 42%.

`CCCCOC(=O)C[S+]([O-])c1nc2cccnc2s1` (stereo not shown) [Example 79, 2-[(n-butoxycarbonylmethyl)sulfinyl]thiazolo[5,4-b]pyridine] yielded a depression of erosion in data set [2] (control nearly 100% erosion) of 98%. Also, the “% Ulceration Inhibition” value in data set [2] was 98%. Moreover, the LD50 in data set [3] was ≥ 1000 mg/kg. This compound also gave an inhibition in vivo at 30 mg/kg in data set [1] of 76%.

Compound `C/C=C/COC(=O)C[S+]([O-])c1nc2cccnc2s1` (stereo not shown) [Example 84, 2-[(crotyloxycarbonylmethyl)sulfinyl]thiazolo[5,4-b]pyridine] displayed an inhibition in vivo at 30 mg/kg in data set [1] of 75%.

The compound `C=CCOC(=O)C[S+]([O-])c1nc2cccnc2s1` (stereo not shown) [Example 89, 2-[(allyloxvcarbonylmethyl)sulfinyl]thiazolo[5,4-b]pyridine] displayed an inhibition in vivo at 30 mg/kg in data set [1] of 72%.

In turn, `COC(=O)C[S+]([O-])c1nc2cccnc2s1` (stereo not shown) [Example 93, 2-[(methoxycarbonylmethyl)sulfinyl]thiazolo[5,4-b]pyridine] registered an inhibition in vivo at 30 mg/kg in data set [1] of 73%.

Turning to `Cn1nnnc1CCCC[S+]([O-])c1nc2cccnc2s1` (stereo not shown) [Example 100, 2-[(4-(1-methyltetrazol-5-y1)butyl)sulfinyl]thiazolo[5,4-b]pyridine], in data set [1], the inhibition in vivo at 30 mg/kg was 95%.

Compound `CC(C)COC(=O)C[S+]([O-])c1nc2cccnc2s1` (stereo not shown) [Example 101, 2-[(isobutoxycarbonylmethyl)sulfinyl]thiazolo[5,4-b]pyridine] displayed an inhibition in vivo at 30 mg/kg in data set [1] of 75%.

In the case of `C[S+]([O-])c1nc2cccnc2s1` (stereo not shown) [Example 103, 2-methylsulfinylthiazolo[5,4-b]pyridine], the inhibition in vivo at 30 mg/kg in data set [1] came to 84%.

For `CCOC(=O)C[S+]([O-])c1nc2ncccc2s1` (stereo not shown) [Example 104, 2-[(ethoxycarbonylmethyl)sulfinyl]thiazolo[4,5-b]pyridine], the LD50 in data set [3] was ≥ 1000 mg/kg. Moreover, in data set [1], the inhibition in vivo at 30 mg/kg worked out at 68%.

The compound `CC(=O)OCC[S+]([O-])c1nc2cccnc2s1` (stereo not shown) [Example 110, 2-[(2-acetoxyethyl)sulfinyl]thiazolo[5,4-b]pyridine] gave an inhibition in vivo at 30 mg/kg in data set [1] of 79%.

On to `O=C(C[S+]([O-])c1nc2cccnc2s1)NC1CCCCC1` (stereo not shown) [Example 117, 2-[(N-cyclohexylcarbamoylmethyl)sulfinyl]thiazolo[5,4-b]pyridine], for which at 30 mg/kg the inhibition in vivo in data set [1] was 77%.

In data set [1], `Cn1nnnc1C[S+]([O-])c1nc2cccnc2s1` (stereo not shown) [Example 120, 2-[((1-methyltetrazol-5-yl)methyl)sulfinyl]thiazolo[5,4-b]pyridine] showed an inhibition in vivo at 30 mg/kg of 86%.

In data set [1], `CCOCC[S+]([O-])c1nc2cccnc2s1` (stereo not shown) [Example 121] registered an inhibition in vivo at 30 mg/kg of 67%.

`CCOCC[S+]([O-])c1nc2cc(Cl)cnc2s1` (stereo not shown) [Example 122]: 30 mg/kg produced 13% inhibition in vivo in data set [1].

For the compound `CCOCC[S+]([O-])c1nc2cnccc2s1` (stereo not shown) [Example 123, 2-[(2-ethoxymethyl)sulfinyl]thiazolo[4,5-c]pyridine], in data set [1], at 30 mg/kg the inhibition in vivo was 15%.

`CCOCC[S+]([O-])c1nc2cccnc2[nH]1` (stereo not shown) [Example 124] returned an inhibition in vivo at 30 mg/kg in data set [1] of 25%.

`[O-][S+](CCc1ccccn1)c1nc2cccnc2s1` (stereo not shown) [Example 125, 2-[2(pyridin-2-yl)-ethylsulfinyl]thiazolo[4,5-]pyridine]: 30 mg/kg produced 44% inhibition in vivo in data set [1].

On to `O=C1NCC(C[S+]([O-])c2nc3cccnc3s2)O1` (stereo not shown) [Example 126, 2-[(2-oxazolidion-5-yl)methylsulfinyl]thiazolo[5,4-b]pyridine], for which, in data set [1], the inhibition in vivo at 30 mg/kg amounted to 60%.

In data set [1], `CC(C)=CC[S+]([O-])c1nc2cccnc2s1` (stereo not shown) [Example 127, 2-[(3-methyl-2-butenyl)sulfinyl]thiazolo[5,4-b]pyridine] showed an inhibition in vivo at 30 mg/kg of 0%.

For the compound `CCOC(=O)C[S+]([O-])c1nc2cccnc2s1` (stereo not shown) [Example 128, 2-[(ethoxycarbonylmethyl)sulfinyl]thiazolo[5,4-b]pyridine], the “% Ulceration Inhibition” value in data set [2] was 99%. Besides, in data set [1], the inhibition in vivo at 30 mg/kg came to 91%.

Compound `CC1(C)CCCC(C)(C)N1CC[S+]([O-])c1nc2cccnc2s1` (stereo not shown) [Example 129, 2-[{2-(2,2,6,6-tetramethylpiperidin-1-yl)ethyl)sulfinyl]thiazolo[5,4-b]pyridine] returned an inhibition in vivo at 30 mg/kg in data set [1] of 99%.

For `CC(C)N(CC[S+]([O-])c1nc2cnccc2s1)C(C)C` (stereo not shown) [Example 130], the inhibition in vivo at 30 mg/kg in data set [1] stood at 76%.

Take `CC(C)N(CC[S+]([O-])c1nc2ncc(C(F)(F)F)cc2s1)C(C)C` (stereo not shown) [Example 131]: in data set [1], the inhibition in vivo at 30 mg/kg was found to be 71%.

With `CC1(C)CCCC(C)(C)N1CC[S+]([O-])c1nc2ncc(C(F)(F)F)cc2s1` (stereo not shown) [Example 133], in data set [3], the LD50 was ≥ 1000 mg/kg. Moreover, in data set [1], the inhibition in vivo at 30 mg/kg is 98%.

In turn, `NC(=O)C[S+]([O-])c1nc2cccnc2s1` (stereo not shown) [Example 135, 2-[(carbamoylmethyl)sulfinyl]thiazolo[5,4-b]pyridine] came in with an inhibition in vivo at 30 mg/kg in data set [1] of 86%.

Compound `CC(C)N(CC[S+]([O-])c1nc2ncccc2s1)C(C)C` (stereo not shown) [Example 136] displayed an inhibition in vivo at 30 mg/kg in data set [1] of 94%.

On to `[O-][S+](CCN1CCOCC1)c1nc2cccnc2s1` (stereo not shown) [Example 138], for which, in data set [2], the “% Ulceration Inhibition” value came out at 97%. The inhibition in vivo at 30 mg/kg in data set [1] is 68%.

As for `O=S(=O)(CCN1CCOCC1)c1nc2cccnc2s1` [Example 139], 30 mg/kg produced 47% inhibition in vivo in data set [1].

`[O-][S+](CCN1CCOCC1)c1nc2cnccc2s1` (stereo not shown) [Example 140] registered an inhibition in vivo at 30 mg/kg in data set [1] of 58%.

`CCN(CC)CC[S+]([O-])c1nc2cccnc2s1` (stereo not shown) [Example 141]: in data set [1], the inhibition in vivo at 30 mg/kg is 41%.

For `[O-][S+](CCN1CCOCC1)c1nc2cc(Cl)cnc2s1` (stereo not shown) [Example 142], the inhibition in vivo at 30 mg/kg in data set [1] was 13%.

As for `[O-][S+](CCN1CCOCC1)c1nc2ncccc2[nH]1` (stereo not shown) [Example 143, 2-[(2-morpholinoethyl)sulfinyl]imidazo[4,5-b]pyridine], in data set [1], testing at 30 mg/kg gave an inhibition in vivo of 54%.

In data set [1], `CN1CCCC1CC[S+]([O-])c1nc2cccnc2s1` (stereo not shown) [Example 144, 2-[(2-(1-methylpyrrolidin-2-y1)ethyl)sulfinyl]thiazolo[5,4-b]pyridine] came in with an inhibition in vivo at 30 mg/kg of 85%.

`CN1CCCC1CCS(=O)(=O)c1nc2cccnc2s1` (stereo not shown) [Example 145, 2-[(2-(1-methylpyrrolidin-2-yl)ethyl)sulfonyl]thiazolo[5,4-b]pyridine] showed an inhibition in vivo at 30 mg/kg in data set [1] of 68%.

Compound `CN1CCCC(C[S+]([O-])c2nc3cccnc3s2)C1` (stereo not shown) [Example 147, 2-[(1-methylpiperidin-3-yl)methylsulfinyl]thiazolo[5,4-b]pyridine] showed an inhibition in vivo at 30 mg/kg in data set [1] of 64%.

In turn, `CN1CCC([S+]([O-])c2nc3cccnc3s2)CC1` (stereo not shown) [Example 148, 2-[(1-methylpiperidin-4-yl)sulfinyl]thiazolo[5,4-b]pyridine] had an inhibition in vivo at 30 mg/kg in data set [1] of 78%.

For `CC(C)N(CC[S+]([O-])c1nc2cccnc2s1)C(C)C` (stereo not shown) [Example 149, 2-[(2-di-isopropylaminoethvl)sulfinyl]thiazolo[5,4-b]pyridine], in data set [2], the “% Ulceration Inhibition” value was 94%. The compound further gave an inhibition in vivo at 30 mg/kg in data set [1] of 99%.

In data set [1], `CC(C)N(CCS(=O)(=O)c1nc2cccnc2s1)C(C)C` [Example 150, 2-[(2-di-isooropylaminoethyl)sulfonyl]thiazolo[5,4-b]pyridine] displayed an inhibition in vivo at 30 mg/kg of 61%.

Compound `CN1CCN(CCC[S+]([O-])c2nc3cccnc3s2)CC1` (stereo not shown) [Example 151, 2-[(3-(1-methylpiperazin-4-yl)propyl)sulfinyl]thiazolo[5,4-b]pyridine] yielded an inhibition in vivo at 30 mg/kg in data set [1] of 39%.
